One data set concerns ISIF/HGF secretion. Nature of the data set: ISIF/HGF secretion by HepG2 cells after wounding (infection susceptibility assay). In kind it is cell-based. The following applies: HepG2 cells treated, washed, incubated with P. berghei sporozoites to generate conditioned medium. As for the experimental part: HepG2 cells were treated with Brefeldin-A (BFA), an inhibitor of protein transport to the Golgi vesicles that blocks constitutive secretion in eukaryotic cells. BFA treated cells, and untreated control cells, were then washed and incubated with P. berghei sporozoites to generate conditioned medium. […] The effect of BFA was dose-dependent. Supernatants of mechanically wounded HepG2 cells were collected after various time periods of incubation. ISIF/HGF levels, as determined by the infection susceptibility assay (FIG. 2c) and western blot analysis, (FIG. 2d) increased with time. The ISIF activity was abolished by the addition of neutralizing anti-HGF antibodies (FIG. 2c).

The conditions of data set [1]: in vivo; cited from earlier work.
A further data set has as its system HGF receptor. Description: ISIF activity of medium conditioned by primary hepatocytes. In kind it is cell-based. As for the experimental part: (§1) Supernatant were generated from cultures containing the mouse hepatoma cells Hepa1-6 and P. yoelii sporozoites (mH/Py conditioned media). To detect ISIF activity, fresh hepatoma cells were incubated with mH/Py conditioned media for different periods of time. Cells were then washed and incubated with P. yoelii sporozoites. Infection was examined 24 h later by staining the exo-erythrocytic forms of the parasite (EEFs). As controls, we used Hepa1-6 cells pre-incubated for identical periods of time with fresh medium before addition of P. yoelii sporozoites. Pre-treatment of hepatocytes with mH/Py conditioned medium increases the level of infection (FIG. 1a). […] Since sporozoites are obtained by dissection of infected mosquito salivary glands, we also tested conditioned media that were obtained from cultures containing hepatoma cells and material of salivary glands from uninfected mosquitoes. Medium conditioned in this way was ineffective (FIG. 1b).
Primary hepatocytes were obtained by liver perfusion. […] Cells that have been traversed by sporozoites can be detected using a cell-impermeant fluorescent tracer macromolecule that only penetrates into wounded cells. P. yoelii sporozoites were incubated with Hepa1-6 cells in the presence of fluorescent-labelled dextran before staining for HGF. […]

For a further data set, the target named is T1, MET (Homo sapiens, UniProt P08581).
T1 construct: host or cells: MLP-29 cells, GTL-16 gastric carcinoma cells and NIH3T3 fibroblasts are named in the same paragraph
The following applies: cited from earlier work.

Data set [2] has as its system P. berghei sporozoites. Description: Infection susceptibility (ISIF) assay: HepG2 cells pre-incubated with growth factors or conditioned medium plus antibodies before P. berghei sporozoites. The conditions noted are these: HepG2 cells pre-incubated before addition of P. berghei sporozoites. Type of data set: cell-based, Plasmodium berghei. As for the experimental part:
as §1
To test whether ISIF activity was mediated by known growth factor, two well-characterized growth factors known to be released after injury were tested: basic fibroblast growth factor (bFGF) and hepatocyte growth factor (HGF). HepG2 cells were pre-incubated with human HGF or bFGF before addition of P. berghei sporozoites. As positive and negative controls, cells were incubated with hH/Pb conditioned medium or fresh medium, respectively. […]

The subject of data set [3] is P. berghei sporozoites. Nature of the data set: Genistein effect on hepatic infection with Plasmodium berghei sporozoites in vitro (EEF count in HepG2 cells). The conditions noted are these: Genistein at 25 μM, 24 h with P. berghei sporozoites. Type of data set: cell-based. As for the experimental part: HepG2 cells were maintained in DMEM 10% FCS, 1 mM glutamine. P. berghei sporozoites were obtained from dissection of infected Anopheles stephensi mosquito salivary glands. P. berghei sporozoites ([…]) were added to monolayers of 2×10^5 HepG2 cells (in the presence or not of Genistein) for 24 h before fixation and staining with anti-EEF mAb (2E6), followed by anti-mouse IgG-FITC antibodies. Infection was quantified by counting the number of EEFs per coverslip.

A further data set relates to Plasmodium berghei. The following applies: cited from earlier work.

T1 sequence (P08581 25-1390): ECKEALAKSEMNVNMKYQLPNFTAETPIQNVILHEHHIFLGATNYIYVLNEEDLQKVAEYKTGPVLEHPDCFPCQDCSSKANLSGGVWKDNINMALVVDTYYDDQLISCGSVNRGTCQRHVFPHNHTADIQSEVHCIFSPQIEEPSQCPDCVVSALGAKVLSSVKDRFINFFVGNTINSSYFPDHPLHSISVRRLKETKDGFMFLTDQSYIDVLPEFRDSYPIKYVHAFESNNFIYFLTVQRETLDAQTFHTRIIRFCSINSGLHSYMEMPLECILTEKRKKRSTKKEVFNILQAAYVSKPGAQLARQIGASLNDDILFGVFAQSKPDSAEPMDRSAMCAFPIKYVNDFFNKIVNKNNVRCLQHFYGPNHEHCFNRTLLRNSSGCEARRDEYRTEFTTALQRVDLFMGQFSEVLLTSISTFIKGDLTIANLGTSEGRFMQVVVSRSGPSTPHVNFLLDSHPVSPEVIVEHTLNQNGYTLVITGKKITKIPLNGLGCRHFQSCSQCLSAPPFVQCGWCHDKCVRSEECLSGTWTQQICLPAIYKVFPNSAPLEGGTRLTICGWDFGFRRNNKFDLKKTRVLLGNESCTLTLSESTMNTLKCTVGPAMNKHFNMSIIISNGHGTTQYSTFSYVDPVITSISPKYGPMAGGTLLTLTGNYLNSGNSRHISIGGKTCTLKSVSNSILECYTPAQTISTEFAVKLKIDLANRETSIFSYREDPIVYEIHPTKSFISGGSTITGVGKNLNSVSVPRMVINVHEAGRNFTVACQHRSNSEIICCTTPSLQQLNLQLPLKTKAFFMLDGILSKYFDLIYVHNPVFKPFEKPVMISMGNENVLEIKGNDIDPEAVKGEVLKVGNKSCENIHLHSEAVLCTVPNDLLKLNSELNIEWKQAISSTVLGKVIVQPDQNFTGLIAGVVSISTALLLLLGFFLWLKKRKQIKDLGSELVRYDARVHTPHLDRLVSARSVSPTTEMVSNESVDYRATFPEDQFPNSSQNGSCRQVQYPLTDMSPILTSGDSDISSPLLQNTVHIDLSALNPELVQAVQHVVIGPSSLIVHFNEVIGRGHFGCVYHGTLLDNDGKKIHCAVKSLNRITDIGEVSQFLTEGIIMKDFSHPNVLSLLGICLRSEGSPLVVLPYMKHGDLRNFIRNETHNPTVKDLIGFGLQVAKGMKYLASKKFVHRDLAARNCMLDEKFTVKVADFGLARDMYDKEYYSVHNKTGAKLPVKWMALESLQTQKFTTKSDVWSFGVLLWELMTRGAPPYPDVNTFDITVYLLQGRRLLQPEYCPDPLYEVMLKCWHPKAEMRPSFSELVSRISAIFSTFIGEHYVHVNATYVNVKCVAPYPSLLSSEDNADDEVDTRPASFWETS

With `C[C@H]1CCC/C=C/[C@@H]2C[C@H](O)C[C@H]2[C@H](O)/C=C/C(=O)O1` [BFA, Brefeldin-A], the ISIF/HGF secretion result in the data set with ISIF/HGF secretion was “inhibits ISIF/HGF secretion”. With `OC(c1cc(C(F)(F)F)nc2c(C(F)(F)F)cccc12)C1CCCCN1` (stereo not shown) [Mefloquine, mefloquine], in data set [1], the elimination half life entry is listed as “two to three”.

With `COC(=O)[C@@]1(O)C[C@H]2O[C@]1(C)n1c3ccccc3c3c4c(c5c6ccccc6n2c5c31)C(=O)NC4` [K252a], the ISIF activity entry with HGF receptor is “abolished ISIF activity”. Also, the “concentration inhibiting Met mediated signals” value on MET is given as “nanomolar concentrations”. In the case of “HGF: hepatocyte growth factor, ligand of the receptor protein tyrosine kinase Met”, the “effect on infection of pre-incubation of HepG2 cells with growth factor” value in the data set on P. berghei sporozoites [2] is “increased infection to a greater extent than the hH/Pb conditioned medium”. Consider `COc1cc(C)c2c(Oc3cccc(C(F)(F)F)c3)c(OC)cc(NC(C)CCCN)c2n1` (stereo not shown) [tafenoquine], for which the terminal half life entry in data set [1] is “about 14 days”. `O=c1c(-c2ccc(O)cc2)coc2cc(O)cc(O)c12` [Genistein, genistein]: the “reduction in infection (number of EEFs per coverslip)” value with P. berghei sporozoites [3] is recorded as “approximately 75%”.

For `C[C@@H]1C[C@H]2O[C@@H]2/C=C\C=C\C(=O)Cc2c(Cl)c(O)cc(O)c2C(=O)O1` [radicicol], the “activity against Plasmodium berghei in mice” value in the data set with Plasmodium berghei is reported as “moderately active”. For the compound bFGF: basic fibroblast growth factor, in the data set on P. berghei sporozoites [2], the “effect on infection of pre-incubation of HepG2 cells with growth factor” value is given as “ineffective”.

Regarding `COc1cc(NC(C)CCCN)c2ncccc2c1` (stereo not shown) [Primaquine, primaquine], the half life entry in data set [1] is given as “very short”.

Values taken from US7670631B2, “Method for the prevention of malaria infection of humans by hepatocyte growth factor antagonists” (ALFAMA—Investigação e Desenvolvimento de Produtos …, priority 2003, dated 2010).
